# Key:
# [1] = Shake-flask solubility in n-hexane and dissolution thermodynamics; type: physicochemical; conditions: for Molar solubility S2 × 10^3 in n-Hexane: value = S2 × 10^3
# Protocol: The solubility of the investigated drugs in 1-octanol and n-hexane was determined by the shake-flask technique. To this end, the glass vials containing the solutions with the excess amount of the compound were placed in an air thermostat and stirred at a predetermined temperature for no less than 24 h (equilibrium state). After this, the suspensions were left for 5 h or more to precipitate the undissolved drug and centrifuged (Biofuge pico, Thermo Electron LED GmbH, Langenselbold, Germany) at a predetermined temperature during 20 min (10,000 rpm). The aliquots of the clear solutions were taken and examined via a spectrophotometer (Cary-50 Varian, Palo Alto, CA, USA, Software Version 3.00 (339)). The molar concentrations of the compounds in the solvents were calculated using calibration curves at the appropriate wavelength characteristic for each substance. The experimental results were reported as an average of at least three replicated experiments with an accuracy of 2–4%. In order to evaluate the thermodynamic parameters of the IPN dissolution in 1-octanol and n-hexane, the molar solubility ( S2 ) was recalculated to the mole fraction ( X2 ) by the equation:(1) X2=M2S2/S2(M1−M2)+1000ρ, where M1 and M2 are the molar masses of IPN and organic solvent, respectively, and ρ (g∙cm^−3) is the density of the pure solvents. The linear functions describing the temperature dependences of the solubility within the temperature interval from 293.2 ± 0.5 K to 313.2 ± 0.5 K for both organic solvents were derived:(2) lnX2=A+B/T
# The apparent solution enthalpies ΔHsol0 were determined by the van’t Hoff equation:(3) ∂(lnX2)/∂T=ΔHsol0/RT^2
# The apparent dissolution Gibbs energies ( ΔGsol ) and entropies ( ΔSsol ) were calculated at a standard temperature of 298.2 K and 310.2 K:(4) ΔGsol298.2/310.2=−RT(lnX2298.2/310.2) (5) ΔGsol298.2/310.2=ΔHsol0−TΔSsol298.2/310.2 where R is the universal gas constant.
# [2] = parameters: method as in PMID 12750026; conditions: 293.2 K (20 °C); cited from earlier work
smiles,measurement,setting,value
"CC(C)NNC(=O)c1ccncc1 [IPN, N′-isopropyl isonicotinic hydrazide]",Molar solubility S2 × 10^3 in n-Hexane,[1]; T 293.2 K,0.83 ± 0.03 × 10^3 (M)
same,Molar solubility S2 × 10^3 in n-Hexane,[1]; T 298.2 K,1.07 ± 0.02 × 10^3 (M)
same,Molar solubility S2 × 10^3 in n-Hexane,[1]; T 303.2 K,1.42 ± 0.03 × 10^3 (M)
same,Molar solubility S2 × 10^3 in n-Hexane,[1]; T 310.2 K,2.03 ± 0.04 × 10^3 (M)
same,TΔSsol298.2,"[1]; n-hexane, 298.2 K",4.3 ± 0.19 kcal/mol
same,ΔGsol298.2,"[1]; n-hexane, 298.2 K",5.26 ± 0.096 kcal/mol
same,ζHsol,"[1]; n-hexane, 298.2 K (first value of cell)",69.0%
same,ΔHsol298.2/310.2,"[1]; n-hexane, 298.2 K and 310.2 K",9.56 ± 0.22 kcal/mol
same,TΔSsol310.2,"[1]; n-hexane, 310.2 K",4.49 ± 0.19 kcal/mol
same,ΔGsol310.2,"[1]; n-hexane, 310.2 K",5.07 ± 0.096 kcal/mol
same,ζHsol,"[1]; n-hexane, 310.2 K (second value of cell)",68.0%
same,log Dexpoct/pH7.4,[2],0.35 ± 0.10
